Experimental data taken from US20230088528A1, “USE OF LIPID IN PREPARATION OF NUCLEIC ACID DELIVERY REAGENT AND RELATED PRODUCT THEREOF” (INSTITUTE OF BASIC MEDICAL SCIENCES CHINESE ACADEMY OF …, priority 2019, published 2023).

Experiment: In vivo delivery of lipid-nucleic acid mixture (PGY-sRNA-26) by gavage, relative intake in blood and tissues by RT-qPCR
Design: species or system C57BL/6 male mice
Details: for oral delivery of sRNA single-chain nucleic acid into the blood, and lung, kidney, spleen, and heart tissues of mice / oral delivery of sRNA single-chain nucleic acid into the blood, and lung, kidney, spleen, heart, and intestinal tissue of mice: 100 μg lipid:1 nmol PGY-sRNA-26 per mouse, 12 hrs after gavage, vs free intake group; for number of organs into which nucleic acid is significantly delivered: among the 6 organs in the experiments
Experimental: The concentration of a lipid solution in chloroform was 10 mg/ml (stock solution), and grouping was performed according to the lipid compound number.
1 nmol of small RNA (as shown in Table 2) was dissolved in 400 μl of DEPC-treated water in a glass tube, and 10 μl of a corresponding lipid stock solution was added, to give a system containing 100 μg of lipid. The system was well mixed, heated for 15 min in a water bath at 90° C., and then naturally cooled, to obtain a lipid-nucleic acid mixture of the lipid and small RNA.
The C57BL/6 male mice used in the experiment were purchased from Beijing Vital River Laboratory Animal Technology Co., Ltd., about 6 weeks old, and weighed 20-24 g. They were kept in an SPF animal room of the Animal Center of the Institute of Basic Medical Sciences, Chinese Academy of Medical Sciences. The mice were fasted for 12 hrs before gavage.
The lipid-nucleic acid mixture was prepared following the method as described in Example 2. The prepared lipid-nucleic acid mixture was orally administered at a dose of 100 μg lipid:1 nmol single-stranded small RNA PGY-sRNA-26 per mouse.
1) Blank group: Mice (n=4) were given 500 μl of normal saline by gavage, and this group served as a blank control group;
2) Free intake group: Mice (n=4) were given sRNA solution (1 nmol/animal, 500 μl) by direct gavage, and this group served as a negative control group;
3) Lipid treatment group: Mice (n=4) were given 500 μl of the lipid-nucleic acid mixture prepared in step 2 by gavage.
12 hrs after gavage in each group of mice, 500 μl of blood was taken from the eyeball, and 1.5 ml of Trizol Reagent LS (purchased from Invitrogen) was added and mixed well for lysis. The tissue sample was added with 3 ml of Trizol Reagent LS. and homogenized for full lysis, wherein the tissue sample included lung/kidney/spleen/heart/gut. 1 ml of blood or tissue lysate was taken and RNA was extracted according to the following steps.
The blood or tissue lysate was centrifuged at 4° C., and 12,000 rpm for 5 min, the pellet was discarded, and Trizol was transferred to a new centrifuge tube.
Chloroform was added in an amount of 200 μL chloroform/mL Trizol, shaken fully until uniform, and allowed to stand at room temperature for 5 min.
The sample was centrifuged at 4° C., and 12,000 rpm, for 15 min.
The upper aqueous phase was pipetted to another centrifuge tube, and isopropanol was added in an amount of 0.4 mL isopropanol/mL Trizol, mixed well, and allowed to stand at a low temperature for 10-20 min.
The sample was centrifuged at 4° C., and 12,000 rpm, for 15 min, the supernatant was discarded, and the RNA pellet was at the bottom of the tube.
1 mL of 75% ethanol was added, and the centrifuge tube was shaken gently, to suspend the pellet.
The sample was centrifuged at 4° C., and 12,000 rpm, for 10 min, the supernatant was discarded, 1 mL of 75% ethanol was added, and the centrifuge tube was shaken gently, to suspend the pellet.
The sample was centrifuged at 4° C., and 12,000 rpm, for 10 min, the supernatant was discarded, and the sample was air dried at room temperature. The RNA sample was dissolved in 50-100 μL of RNase-free H2O, and the RNA concentration was quantified by determining the OD value.
The sRNA was reversely transcribed into cDNA using a reverse transcription kit (High-Capacity cDNA Reverse Transcription Kits, Applied Biosystems, cat. no. 4368813), following the stem-loop method (see, for example Real-time quantification of microRNAs by stem-loop RT-PCR, Nucleic Acids Res. 2005 Nov. 27; 33(20):e179, incorporated herein by reference). System for reverse transcription: template RNA (200 ng/μL) 10 μL, 10×RT buffer 2.0 μL, 25×dNTP Mix (100 mM) 0.8 μL, U6 RT stem-loop primer 2.0 μL, PGY-sRNA-26 RT stem-loop primer 2.0 μL, MultiScribe™ reverse transcriptase 1.0 μL, RNAase inhibitor 1.0 μL, and nuclease-free water H2O 1.2 μL. […]

[1] = significant difference compared to the control, 100 μg lipid:1 nmol PGY-sRNA-26, 12 hrs

| Molecule | oral delivery of sRNA single-stranded nucleic acid into the spleen tissue of mice [1] | oral delivery of sRNA single-chain nucleic acid into the blood, and lung, kidney, spleen, heart, and intestinal tissue of mice | also measured |
| --- | --- | --- | --- |
| 1,3-palmitin-2-myristin [Lipid 76] | can significantly efficiently orally deliver | – | oral delivery of sRNA single-chain nucleic acid into the blood, and lung, kidney, spleen, and heart tissues of mice: can effectively orally deliver; number of organs into which nucleic acid is significantly delivered: two organs; oral delivery of sRNA single-stranded nucleic acid into the lung tissue of mice [1]: can significantly efficiently orally deliver |
| CCCCCCCC/C=C\CCCCCCCC(=O)OCC(O)COP(=O)(O)OCCN (stereo not shown) [Lipid 116, 1-(9Z-octadecenoyl)-sn-glycero-3-phosphoethanolamine] | – | can effectively orally deliver | – |
| N-palmitoyl-D-erythro-sphingosylphosphocholine [Lipid 105] | – | can effectively orally deliver | oral delivery of sRNA single-stranded nucleic acid into the blood of mice [1]: can significantly efficiently orally deliver |
| CCCCCCCCCCCCCCCC(=O)OCC(COP(=O)([O-])OCC[N+](C)(C)C)OC(=O)CCCCCCCCCCCCCCC (stereo not shown) [Lipid 119, 1,2-dihexadecanoyl-sn-glycero-3-phosphocholine] | – | can effectively orally deliver | – |
| CCCCCCCCC=CCCCCCCCC(=O)OCC(COC(=O)CCCCCCCCCCCCCCCCCCCCC)OC(=O)CCCCCCCC=CCCCCCCCC (stereo not shown) [Lipid 79, 1,2-olein-3-behenin] | can significantly efficiently orally deliver | – | oral delivery of sRNA single-chain nucleic acid into the blood, and lung, kidney, spleen, and heart tissues of mice: can effectively orally deliver |
| N-palmitoleoyl-D-erythro-sphingosylphosphocholine [Lipid 103] | – | can effectively orally deliver | oral delivery of sRNA single-stranded nucleic acid into the lung tissue of mice [1]: can significantly efficiently orally deliver |
| COC1=C(OC)C(=O)C(C/C=C(\C)CC/C=C(\C)CC/C=C(\C)CC/C=C(\C)CC/C=C(\C)CC/C=C(\C)CC/C=C(\C)CC/C=C(\C)CC/C=C(\C)CCC=C(C)C)=C(C)C1=O [Lipid 82, Q-10, Ubiquinone 50, Ubiquinone 10] | – | can effectively orally deliver | – |
| CCCCCCCCCCCCCCCCOC[C@H](COP(=O)([O-])OCC[N+](C)(C)C)OC(C)=O [Lipid 84, β-acetyl-γ-O-hexadecyl-L-α-phosphatidylcholine hydrate] | – | can effectively orally deliver | – |
| CCCCCCCCCCCCCCCCCC(=O)OCC(O)COC(=O)CCCCCCCCCCCCCCC (stereo not shown) [Lipid 111, 1-palmitin-3-stearin] | – | can effectively orally deliver | – |
| CCCCCCCC/C=C\CCCCCCCC(=O)O[C@H](COC(=O)CCCCCCCCCCCCCCCCC)COP(=O)([O-])OCC[N+](C)(C)C [Lipid 87, 1-stearoyl-2-oleoyl-sn-glycero-3-phosphocholine] | – | can effectively orally deliver | – |
| CCCCCCCCCCCCCCCCOC[C@H](COP(=O)([O-])OCC[N+](C)(C)C)OC(C)=O [Lipid 85, β-acetyl-γ-O-alkyl-L-α-phosphatidylcholine] | – | can effectively orally deliver | – |
| CCCCCCCC/C=C\CCCCCCCC(=O)OC[C@H](COP(=O)([O-])OCC(O)CO)OC(=O)CCCCCCC/C=C\CCCCCCCC.[Na+] (stereo partly shown) [Lipid 81, 1,2-dioleoyl-sn-glycero-3-phosphatidylglycerol sodium salt] | can significantly efficiently orally deliver | – | oral delivery of sRNA single-chain nucleic acid into the blood, and lung, kidney, spleen, and heart tissues of mice: can effectively orally deliver |
| CCCCCCCCCCCCC/C=C/[C@@H](O)[C@@H](N)CO [Lipid 98, D-erythro-sphingosine] | can significantly efficiently orally deliver | can effectively orally deliver | overall nucleic acid delivery performance among the lipids (across the 6 organs in the experiments): most significant delivery performance; oral delivery of sRNA single-stranded nucleic acid into the kidney tissue of mice [1]: can significantly efficiently orally deliver; oral delivery of sRNA single-stranded nucleic acid into the lung tissue of mice [1]: can significantly efficiently orally deliver |
| CCCCCCCCCCC/C=C/[C@@H](O)[C@@H](N)CO [Lipid 100, D-erythro-sphingosine (C16 group)] | can significantly efficiently orally deliver | can effectively orally deliver | – |
| CCCCCCCCCCCCCCCC(=O)OC[C@@H](O)COP(=O)([O-])OCC[N+](C)(C)C [Lipid 113, 1-palmitoyl-2-hydroxy-sn-glycerol-3-phosphatidylcholine] | – | can effectively orally deliver | – |
| 1-palmitoyl-2-oleoyl-sn-glycero-3-phospho-(1′-rac-glycerol) (sodium salt) [Lipid 88] | – | can effectively orally deliver | oral delivery of sRNA single-stranded nucleic acid into the kidney tissue of mice [1]: can significantly efficiently orally deliver |
| CCCCCCCCC/C=C/[C@@H](O)[C@@H](N)CO [Lipid 99, D-erythro-sphingosine (C14 group)] | can significantly efficiently orally deliver | can effectively orally deliver | – |
| CCCCCCCCCCCCCCCCC/C=C/[C@@H](O)[C@@H](N)CO [Lipid 97, D-erythro-sphingosine (C22 group)] | – | can effectively orally deliver | number of organs into which nucleic acid is significantly delivered: two organs; oral delivery of sRNA single-stranded nucleic acid into the kidney tissue of mice [1]: can significantly efficiently orally deliver; oral delivery of sRNA single-stranded nucleic acid into the lung tissue of mice [1]: can significantly efficiently orally deliver |
| CCCCCCCCCCCCCCCCCCCC(=O)OCC(COC(=O)CCCCCCCCCCCCCCCCCCC)OC(=O)CCCCCCCCCCCCCCCCCCC [Lipid 112, Trieicosanoin] | – | can effectively orally deliver | – |
| CCCCC/C=C\C/C=C\CCCCCCCC(=O)OC[C@H](COP(=O)([O-])OCC[N+](C)(C)C)OC(=O)CCCCCCC/C=C\C/C=C\CCCCC [Lipid 107, 1,2-dilinoleoyl-sn-glycero-3-phosphocholine] | – | can effectively orally deliver | – |
